#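 Protocol summary: plate cells (96-well), add compound at 5 concentrations, incubate 48 h, interpolate endpoints linearly. GI50 marks 50% less growth.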 The source made the active and inactive calls. No stated cut-off is given here; in the data, active = GI50 up to about 1.1 µM and inactive = higher.
# Key:
# Experiment in all cases: inhibition of tumour cell growth, NCI panel, 48 h
# SK-OV-3 = system: SK-OV-3
# HL-60 = system: HL-60
# HCT-15 = system: HCT-15
# HT-29 = system: HT-29
# KM-20L2 = system: KM-20L2
# ACHN = system: ACHN
# A498 = system: A498
# NCI-H522 = system: NCI-H522
# HOP-18 = system: HOP-18
# NCI-H460 = system: NCI-H460
# SK-MEL-5 = system: SK-MEL-5
# 786-0 = system: 786-0
# CAKI-1 = system: CAKI-1
# RPMI-8226 = system: RPMI-8226
# SNB-19 = system: SNB-19
# LXFL 529 = system: LXFL 529
# COLO 205 = system: COLO 205
# SK-MEL-2 = system: SK-MEL-2
# MOLT-4 = system: MOLT-4
# SW-620 = system: SW-620
# U-251 = system: U-251
# Malme-3M = system: Malme-3M
# UO-31 = system: UO-31
# LOX IMVI = system: LOX IMVI
# M19-MEL = system: M19-MEL
# CCRF-CEM = system: CCRF-CEM
# IGROV-1 = system: IGROV-1
# RXF 631 = system: RXF 631
# SN12C = system: SN12C
# OVCAR-5 = system: OVCAR-5
# XF498 = system: XF498
# EKVX = system: EKVX
# M14 = system: M14
# OVCAR-4 = system: OVCAR-4
# DLD-1 = system: DLD-1
# DMS-273 = system: DMS-273
# A549 = system: A549
# SNB-75 = system: SNB-75
# SF-295 = system: SF-295
# KM12 = system: KM12
# OVCAR-3 = system: OVCAR-3
# TK-10 = system: TK-10
# UACC-257 = system: UACC-257
# SK-MEL-28 = system: SK-MEL-28
# SF-268 = system: SF-268
# HCC 2998 = system: HCC 2998
# NCI-H226 = system: NCI-H226
# SF-539 = system: SF-539
# RXF 393 = system: RXF 393
# UACC-62 = system: UACC-62
# NCI-H23 = system: NCI-H23
# OVCAR-8 = system: OVCAR-8
# K562 = system: K562
# HOP-92 = system: HOP-92
# HOP-62 = system: HOP-62
# DMS-114 = system: DMS-114
structure (smiles),measurement,setting,value
Cc1ccc(S(=O)(=O)N[C@H](C(=O)O)c2ccccc2)cc1,GI50,SK-OV-3,> 100 µM (inactive)
same,GI50,HL-60,> 100 µM (inactive)
same,GI50,HCT-15,> 100 µM
same,GI50,HT-29,> 100 µM (inactive)
same,GI50,KM-20L2,> 100 µM (inactive)
same,GI50,ACHN,> 100 µM (inactive)
same,GI50,A498,> 100 µM (inactive)
same,GI50,NCI-H522,> 100 µM (inactive)
same,GI50,HOP-18,> 100 µM (inactive)
same,GI50,NCI-H460,> 100 µM (inactive)
same,GI50,SK-MEL-5,> 100 µM (inactive)
same,GI50,786-0,> 100 µM (inactive)
same,GI50,CAKI-1,> 100 µM (inactive)
same,GI50,RPMI-8226,26.8 µM (inactive)
same,GI50,SNB-19,> 100 µM (inactive)
same,GI50,LXFL 529,> 100 µM (inactive)
same,GI50,COLO 205,> 100 µM (inactive)
same,GI50,SK-MEL-2,> 100 µM (inactive)
same,GI50,MOLT-4,58.6 µM (inactive)
same,GI50,SW-620,> 100 µM (inactive)
same,GI50,U-251,> 100 µM (inactive)
same,GI50,Malme-3M,> 100 µM (inactive)
same,GI50,UO-31,> 100 µM (inactive)
same,GI50,LOX IMVI,> 100 µM (inactive)
same,GI50,M19-MEL,> 100 µM (inactive)
same,GI50,CCRF-CEM,> 100 µM (inactive)
same,GI50,IGROV-1,> 100 µM (inactive)
same,GI50,RXF 631,> 100 µM (inactive)
same,GI50,SN12C,> 100 µM (inactive)
same,GI50,OVCAR-5,> 100 µM (inactive)
same,GI50,XF498,> 100 µM (inactive)
same,GI50,EKVX,> 100 µM (inactive)
same,GI50,M14,> 100 µM (inactive)
same,GI50,OVCAR-4,> 100 µM (inactive)
same,GI50,DLD-1,> 100 µM (inactive)
same,GI50,DMS-273,> 100 µM (inactive)
same,GI50,A549,> 100 µM (inactive)
same,GI50,SNB-75,> 100 µM (inactive)
same,GI50,SF-295,> 100 µM (inactive)
same,GI50,KM12,> 100 µM (inactive)
same,GI50,OVCAR-3,> 100 µM (inactive)
same,GI50,TK-10,> 100 µM (inactive)
same,GI50,UACC-257,> 100 µM (inactive)
same,GI50,SK-MEL-28,> 100 µM (inactive)
same,GI50,SF-268,> 100 µM (inactive)
same,GI50,HCC 2998,> 100 µM (inactive)
same,GI50,NCI-H226,> 100 µM (inactive)
same,GI50,SF-539,> 100 µM (inactive)
same,GI50,RXF 393,> 100 µM (inactive)
same,GI50,UACC-62,> 100 µM (inactive)
same,GI50,NCI-H23,> 100 µM (inactive)
same,GI50,OVCAR-8,> 100 µM (inactive)
same,GI50,K562,> 100 µM (inactive)
same,GI50,HOP-92,> 100 µM (inactive)
C=CCN(N=O)C(=O)N(CCCCC(NC(C)=O)C(=O)NCc1ccccc1)Cc1ccccc1 (stereo not drawn),GI50,SK-OV-3,> 100 µM (inactive)
same,GI50,HL-60,19.8 µM (inactive)
same,GI50,HCT-15,39.9 µM
same,GI50,HT-29,19.5 µM (inactive)
same,GI50,KM-20L2,18.9 µM (inactive)
same,GI50,ACHN,42.9 µM (inactive)
same,GI50,A498,42.9 µM (inactive)
same,GI50,NCI-H522,15.1 µM (inactive)
same,GI50,HOP-18,23 µM (inactive)
same,GI50,NCI-H460,39.2 µM (inactive)
same,GI50,SK-MEL-5,15.5 µM (inactive)
same,GI50,786-0,28.6 µM (inactive)
same,GI50,CAKI-1,28.6 µM (inactive)
same,GI50,RPMI-8226,16.1 µM (inactive)
same,GI50,SNB-19,51.5 µM (inactive)
same,GI50,LXFL 529,31.1 µM (inactive)
same,GI50,COLO 205,23.8 µM (inactive)
same,GI50,SK-MEL-2,37.1 µM (inactive)
same,GI50,MOLT-4,13.8 µM (inactive)
same,GI50,SW-620,33.8 µM (inactive)
same,GI50,U-251,42.5 µM (inactive)
same,GI50,HOP-62,57.9 µM (inactive)
same,GI50,Malme-3M,20.2 µM (inactive)
same,GI50,UO-31,29.6 µM (inactive)
same,GI50,LOX IMVI,21.7 µM (inactive)
same,GI50,M19-MEL,35.2 µM (inactive)
same,GI50,CCRF-CEM,28.2 µM (inactive)
same,GI50,IGROV-1,> 100 µM (inactive)
same,GI50,RXF 631,32.5 µM (inactive)
same,GI50,DMS-114,27.7 µM (inactive)
same,GI50,SN12C,41.5 µM (inactive)
same,GI50,OVCAR-5,> 100 µM (inactive)
same,GI50,XF498,36.1 µM (inactive)
same,GI50,EKVX,38.1 µM (inactive)
same,GI50,M14,22.6 µM (inactive)
same,GI50,OVCAR-4,25.9 µM (inactive)
same,GI50,DMS-273,41.1 µM (inactive)
same,GI50,A549,38.5 µM (inactive)
same,GI50,SNB-75,38.4 µM (inactive)
same,GI50,SF-295,31 µM (inactive)
same,GI50,KM12,31.6 µM (inactive)
same,GI50,OVCAR-3,30.3 µM (inactive)
same,GI50,TK-10,35.1 µM (inactive)
same,GI50,UACC-257,36.1 µM (inactive)
same,GI50,SK-MEL-28,44.1 µM (inactive)
same,GI50,SF-268,41.9 µM (inactive)
same,GI50,NCI-H226,25.4 µM (inactive)
same,GI50,SF-539,38.1 µM (inactive)
same,GI50,RXF 393,21.7 µM (inactive)
same,GI50,UACC-62,34.6 µM (inactive)
same,GI50,NCI-H23,46.5 µM (inactive)
same,GI50,OVCAR-8,35.2 µM (inactive)
same,GI50,K562,26.9 µM (inactive)
same,GI50,HOP-92,13.1 µM (inactive)
